Patent publication US10322136B2, “Composition for inhibiting growth or proliferation of chronic myelogenous leukemia cancer stem cells, and screening method therefor” (HIROSHIMA UNIVERSITY, priority 2015, dated 2019)

Legend:
[1] = tested on: normal HSCs; conditions: mouse, in vivo
Text: C57BL/6 (CD45.2 for the Ly5 locus) and congenic C57BL/6 (CD45.1 for the Ly5 locus; B6-Ly5.1) mice were purchased from Sankyo-Lab Service (Tsukuba, Japan). Lethally irradiated (9 Gy) C57BL/6 (CD45.2) recipient mice were reconstituted with 1×10^4 normal KLS^+ cells (HSCs) from congenic C57BL/6 (CD45.1) (B6-Ly5.1) mice in competition with 5×10^5 unfractionated BM MNCs derived from C57BL/6 (CD45.2) mice. Transplanted recipients then received vehicle or cefadroxil (36 mgKg^−1day^−1) from day 0 to 8 weeks post transplantation. Reconstitution of donor-derived cells (CD45.1) was monitored at 4 and 8 weeks post transplantation by flow cytometric analysis of peripheral blood mononuclear cells stained with monoclonal antibodies (mAbs) against CD45.2 (104)-FITC and CD45.1 (A20)-PE.

[2] = tested on: BCR-ABL1+ disease; assay: Survival and disease recurrence of BCR-ABL1 CML-affected mice; type: in vivo, mouse; conditions: oral gavage days 8 to 90 post transplantation; IM 100 mg/kg/day; cefadroxil 36 mg/kg/day; versus vehicle
Text: BCR-ABL1 transduction/transplantation-based CML model (BCR-ABL1 CML mice) was also used. Briefly, normal KLS^+ cells (4-5×10^3 cells per recipient mouse) were transduced with the human BCR-ABL1-ires GFP retrovirus and transplanted into irradiated (9 Gy) recipient C57BL/6 mice (Sankyo-Lab Service, Tsukuba, Japan).
Treatment was delivered by oral gavage on days 8 to 90 post transplantation. To examine the effect of single administration of Ly2228820, BCR-ABL1-CML-affected mice received vehicle, or Ly2228820 (2.5 mg kg^−1 every three days; Axon Medchem) in vehicle, by oral gavage on days 8 to 60 days post transplantation.

[3] = tested on: LT-CML cancer stem cells; assay: Colony-forming assay, LT-CML cancer stem cells on OP-9 stromal cells; type: cell-based, mouse; conditions: 5 μM, 5 days, hypoxic (3% O2)
Procedure: LT-CML stem cells or LT-normal HSCs (1×10^3/plate) were co-cultured on OP-9 stromal cells for 5 days in the presence of either vehicle (control) or a dipeptide transporter inhibitor cefadroxil (5 μM). Cells were harvested, washed with PBS, and plated in semi-solid methylcellulose medium containing SCF, IL-3, IL-6 and erythropoietin (Methocult GF M3434; Stem Cell Technologies). After growth for 7 days in a humidified atmosphere containing 5% CO2 at 37° C., colony numbers were counted under a light microscope. For combination treatments of dipeptide transporter inhibitor+tyrosine kinase inhibitor (TKI), LT-CML cancer stem cells (3×10^3) were plated on OP-9 stromal cells in the presence of cefadroxil (5 μM). After 24 h in culture, the cells received additional DMSO or 1 μM IM (Axon Medchem) and were incubated for another 4 days (total 5 days). Treated cells were washed with PBS, transferred to a semi-solid medium, and colony formation after 7 days was assessed as described above.

[4] = tested on: Smad3 Ser208; assay: Duolink in situ PLA, Smad3 Ser208 phosphorylation in LT-CML cancer stem cells; type: cell-based, mouse; conditions: 30 min; GlySar or cefadroxil 5 μM; rapamycin 100 nM
Procedure: (§1) To examine phosphorylation of Smad2, Smad3, p38MAPK, AMPK, and S6 ribosomal protein, and Foxo3a-Smad2 and Foxo3a-Smad3 interactions, Duolink® in situ PLA assay (Olink Bioscience) was used. LT-CML stem cells, ST-CML stem cells, CD48^+, MPP, and KLS^− CML cells that were freshly isolated from CML-affected mice, and LT-normal HSCs that were freshly isolated from healthy control littermates, were immediately fixed with 4% paraformaldehyde for 30 min.
(§2) For in vitro inhibitor experiments, LT-CML stem cells were incubated in 3% O2 at 37° C. for 30 min with vehicle (control; artificial gastric fluid solution (900 ml ddH2O containing 2.0 g of NaCl, 7 ml of conc. HCl and 3.2 g of pepsin)), 5 μM Ly364947 (TGF-β type I receptor kinase Alk5 inhibitor; Merck), 5 μM SB203580 (p38MAPK inhibitor; LC Laboratories), 5 μM GlySar (dipeptide transporter inhibitor; Sigma-Aldrich), 5 μM cefadroxil (dipeptide transporter inhibitor; Sigma-Aldrich), or 100 nM rapamycin (mTORC1 inhibitor; Cell Signaling Technologies). Treated cells were fixed with 4% paraformaldehyde for 30 min, and treated with 0.25% Triton X-100 for 15 min, washed and blocked by incubation in 5% FBS in TBS for 1 hr.
(§3) The proximate binding of these antibodies was then detected using Duolink® in situ PLA system which employs a set of two secondary antibodies in which one is conjugated to a minus strand PLA probe and the other is conjugated to a plus strand PLA probe. Nuclei were stained with DNA marker DAPI (Sigma). Stained slides were mounted using Fluoromount Plus (Diagnostic Biosystems) and fluorescent images were acquired by confocal microscopy (FV10i, Olympus) and Photoshop software (Adobe). The number of fluorescent foci per single cell was quantified using Duolink®Image Tool software (Olink Bioscience).

[5] = tested on: Raptor-Ser863; assay: Duolink in situ PLA, Raptor-Ser863 phosphorylation in LT-CML cancer stem cells; type: cell-based, mouse; conditions: 30 min; GlySar or cefadroxil 5 μM; rapamycin 100 nM
Procedure: as §1
(§4) For in vitro inhibitor experiments, LT-CML stem cells were incubated in 3% O2 at 37° C. for 30 min with vehicle (control; artificial gastric fluid solution (900 ml ddH2O containing 2.0 g of NaCl, 7 ml of conc. HCl and 3.2 g of pepsin)), 5 μM Ly364947 (TGF-β type I receptor kinase Alk5 inhibitor; Merck), 5 μM SB203580 (p38MAPK inhibitor; LC Laboratories), 5 μM GlySar (dipeptide transporter inhibitor; Sigma-Aldrich), 5 μM cefadroxil (dipeptide transporter inhibitor; Sigma-Aldrich), or 100 nM rapamycin (mTORC1 inhibitor; Cell Signaling Technologies). […]
(§5) The proximate binding of these antibodies was then detected using Duolink® in situ PLA system which employs a set of two secondary antibodies in which one is conjugated to a minus strand PLA probe and the other is conjugated to a plus strand PLA probe. […] The number of fluorescent foci per single cell was quantified using Duolink®Image Tool software (Olink Bioscience).

[6] = tested on: CML-KLS+ cells; assay: Metabolomic analysis of dipeptides in KLS+ cells from treated CML-affected mice; type: in vivo, mouse; conditions: cefadroxil 36 mg/kg/day oral gavage for 30 days
Procedure: To detect inhibition of dipeptide uptake in vivo, immature KLS^+ cells were isolated from tet-inducible CML-affected (Tal1-tTA^+TRE-BCR-ABL1^+) mice (n=4 mice in each of the three independent experiments), and normal healthy littermate (Tal1-tTA^+) mice (n=6 mice in each of the two independent experiments) that had received vehicle or cefadroxil (36 mgKg^−1day^−1) by oral gavage for 30 days. […] In all cases, isolated cell pellets were frozen at −80° C. immediately after obtaining. Metabolomic profiling was performed by Metabolon Inc. (Durham, N.C.) using ultrahigh-performance liquid chromatography/mass spectroscopy (UPLC/MS/MS) and gas chromatography/MS (GC/MS). Data were compiled using the Metabolon LIMS (Laboratory Information Management System). The UPLC/MS/MS portion of the platform was based on a Waters Acquity UPLC (Waters) and a Q-Exactive high-resolution/accurate mass spectrometer (Thermo Scientific) interfaced with a heated electrospray ionization (HESI-II) source and Orbitrap mass analyzer. GC/MS was performed by a Trace DSQ fast-scanning single-quadrupole mass spectrometer using electron impact ionization (Thermo-Finnigan).

[7] = tested on: AMPK; assay: Duolink in situ PLA, AMPK phosphorylation in LT-CML cancer stem cells; type: cell-based, mouse; conditions: LT-CML cancer stem cells in vitro
Procedure: as §1, §2, §3

[8] = tested on: Raptor-Ser792; assay: Raptor-Ser792 phosphorylation in LT-CML cancer stem cells; type: cell-based, mouse; conditions: LT-CML cancer stem cells in vitro
[9] = tested on: CML-KLS+ cells; assay: Serial transplantation of CML stem cells; type: in vivo, mouse
Procedure: To evaluate the retention of the disease-initiating capacity by CML stem cells after treatment of mice with cefadroxil […] and/or IM in vivo, the number of GFP/BCR-ABL1+CMLKLS^+ cells in treated BCR-ABL1 CML-affected mice was determined, and subsequent secondary transplantation of the cells was performed. Briefly, CML-affected mice received by oral gavage for 30 days post BM transplantation as described above. The number of GFP/BCR-ABL1+CML-KLS+ cells among total GFP/BCR-ABL1+CML cells isolated from BM MNCs acquired from the two hindlimbs of treated CML-affected mice was assessed by flow cytometry. Freshly purified GFP/BCR-ABL1^+CML-KLS^+ cells (3×10^4) were then serially transplanted into a second set of lethally irradiated congenic recipient mice along with 5×10^5 normal BM MNCs derived from C57BL/6 mice. Mouse survival and disease recurrence were monitored for 90 days.

[10] = tested on: S6 ribosomal protein; assay: Duolink in situ PLA, S6 ribosomal protein phosphorylation in LT-CML cancer stem cells; type: cell-based, mouse; conditions: 30 min; GlySar or cefadroxil 5 μM; rapamycin 100 nM
Procedure: as §1, §4, §5

CC1=C(C(=O)O)N2C(=O)[C@@H](NC(=O)[C@H](N)c3ccc(O)cc3)[C@H]2SC1 [cefadroxil]
frequency of donor-derived CD45.1 MNCs in peripheral blood [1]: no increase | BCR-ABL1+ disease onset / development [2]: appeared to promote disease development | colony-forming capacity of LT-CML cancer stem cells [3]: significantly decreased | Smad3 Ser208 phosphorylation [4]: blocked | phosphorylation of Raptor-Ser863 [5]: decreased phosphorylation | levels of several dipeptides in immature CML-KLS+ cells [6]: decreased | phosphorylation of AMPK [7]: increased | Raptor-Ser792 phosphorylation [8]: did not promote | ability of CML-KLS+ cells from treated mice to drive BCR-ABL1+ disease in new recipients ([9]; 3x10^4 cells per recipient, donors treated with cefadroxil): completely lost their ability | survival of new recipient mice ([9]; recipients of CML-KLS+ cells from cefadroxil-treated mice): over 90 days | phosphorylation of S6 [10]: decreased phosphorylation
